Experimental data from US20150299188A1, “HETEROCYCLIC COMPOUND” (priority 2012, published 2015).

Test system: FLAP (5-lipoxygenase activating protein)
Experiment: In vitro binding test: displacement of [3H]-7-chloro-3-(5-((3-fluoropyridin-2-yl)methoxy)-2-methylphenyl)-3,4-dihydroquinazolin-2(1H)-one from Sf9 microsome fractions
Set-up: species or system human and mouse
Conditions: Sf9 microsome fractions expressing FLAP; 100% = radioligand binding with 10 μM sodium 3-(3-(tert-butylsulfanyl)-1-(4-chlorobenzyl)-5-isopropyl-1H-indol-2-yl)-2,2-dimethylpropanoate, 0% = DMSO; test compound concentration not given
Summary of the method: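 Sf9 microsomes expressing human or mouse FLAP (2 μg/mL) preincubated with compound 10 min at room temperature, then 120 nM tritiated quinazolinone ligand added for 60 min; buffer 100 mM Tris-HCl pH 7.5 with NaCl, EDTA, DTT, glycerol, Tween20. Bound ligand filtered and counted by scintillation; 10 μM indole propanoate defines 100% inhibition, DMSO 0%.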

Row | Structure (SMILES) | inhibitory rate (%)
1 | Cc1ccc(OCc2c(F)cccc2F)cc1N1Cc2ccc(-c3noc(=O)[nH]3)cc2NC1=O [Example 208, 3-(5-((2,6-difluorobenzyl)oxy)-2-methylphenyl)-7-(5-oxo-4,5-dihydro-1,2,4-oxadiazol-3-yl)-3,4-dihydroquinazolin-2(1H)-one] | 96
2 | CCCN(C)C(=O)c1ccc2c(c1)NC(=O)N(c1cc(OCc3ncccc3F)ccc1C)C2 [Example 266, 3-(5-((3-fluoropyridin-2-yl)methoxy)-2-methylphenyl)-N-methyl-2-oxo-N-propyl-1,2,3,4-tetrahydroquinazoline-7-carboxamide] | 105
3 | O=C(NC1CC1)c1cc2c(c(C3CC3)n1)CN(c1cc3c(cc1Cl)CCC(c1ncccc1F)O3)C(=O)N2 (stereo not drawn) [Example 76, 3-(6-chloro-2-(3-fluoropyridin-2-yl)-3,4-dihydro-2H-chromen-7-yl)-N,5-dicyclopropyl-2-oxo-1,2,3,4-tetrahydropyrido[4,3-d]pyrimidine-7-carboxamide] | 105
4 | O=C1Nc2ccccc2CN1c1cc(OCc2ncccc2F)ccc1CNC1CC1 [Example 312, 3-(2-((cyclopropylamino)methyl)-5-((3-fluoropyridin-2-yl)methoxy)phenyl)-3,4-dihydroquinazolin-2(1H)-one] | 86
5 | Cc1ccc(OCc2ncccc2F)cc1N1Cc2cccc(Cl)c2NC1=O [Example 253, 8-chloro-3-(5-((3-fluoropyridin-2-yl)methoxy)-2-methylphenyl)-3,4-dihydroquinazolin-2(1H)-one] | 93
6 | Cc1cc2c(cc1N1Cc3c(cc(CCC(=O)O)nc3C3CC3)NC1=O)OC(c1ncccc1F)CC2 (stereo not drawn) [Example 94, 3-(5-cyclopropyl-3-(2-(3-fluoropyridin-2-yl)-6-methyl-3,4-dihydro-2H-chromen-7-yl)-2-oxo-1,2,3,4-tetrahydropyrido[4,3-d]pyrimidin-7-yl)propanoic acid] | 104
7 | COc1ncc(Cl)c2c1NC(=O)N(c1cc3c(cc1Cl)CCC(c1ncccc1F)O3)C2 (stereo not drawn) [Example 80, 5-chloro-3-(6-chloro-2-(3-fluoropyridin-2-yl)-3,4-dihydro-2H-chromen-7-yl)-8-methoxy-3,4-dihydropyrido[3,4-d]pyrimidin-2(1H)-one] | 107
8 | Cc1cc2c(cc1N1Cc3cnccc3NC1=O)OC(c1ncccc1F)CC2 (stereo not drawn) [Example 29, 3-(2-(3-fluoropyridin-2-yl)-6-methyl-3,4-dihydro-2H-chromen-7-yl)-3,4-dihydropyrido[4,3-d]pyrimidin-2(1H)-one] | 99
9 | COC(=O)c1ccc2c(c1)NC(=O)N(c1cc(OCc3ncc(C)s3)ccc1C)C2 [Example 241, methyl 3-(2-methyl-5-((5-methyl-1,3-thiazol-2-yl)methoxy)phenyl)-2-oxo-1,2,3,4-tetrahydroquinazoline-7-carboxylate] | 94
10 | O=C1Nc2ccnc(Cl)c2CN1c1cc2c(cc1C(F)(F)F)CCC(c1ncccc1F)O2 (stereo not drawn) [Example 35, 5-chloro-3-(2-(3-fluoropyridin-2-yl)-6-(trifluoromethyl)-3,4-dihydro-2H-chromen-7-yl)-3,4-dihydropyrido[4,3-d]pyrimidin-2(1H)-one] | 93
11 | Cc1ccc(OCc2ncccc2F)cc1-n1c(=O)[nH]c2cccc(OCC3CC3)c2c1=O [Example 367, 5-(cyclopropylmethoxy)-3-(5-((3-fluoropyridin-2-yl)methoxy)-2-methylphenyl)quinazoline-2,4(1H,3H)-dione] | 100
12 | COc1ccc(CN2C(=O)N(c3cc(OCc4ncccc4F)ccc3Br)Cc3ccccc32)cc1 [Example 258, 3-(2-bromo-5-((3-fluoropyridin-2-yl)methoxy)phenyl)-1-(4-methoxybenzyl)-3,4-dihydroquinazolin-2(1H)-one] | 116
13 | O=C(NCc1ccccn1)c1ccc(OCc2c(F)cccc2F)cc1N1Cc2ccccc2NC1=O [Example 192, 4-((2,6-difluorobenzyl)oxy)-2-(2-oxo-1,4-dihydroquinazolin-3(2H)-yl)-N-(pyridin-2-ylmethyl)benzamide] | 51
14 | CC(C)(O)c1ccc2c(c1)NC(=O)N(c1cc(OCc3c(F)cccc3F)ccc1F)C2 [Example 233, 3-(5-((2,6-difluorobenzyl)oxy)-2-fluorophenyl)-7-(2-hydroxypropan-2-yl)-3,4-dihydroquinazolin-2(1H)-one] | 87
15 | Cc1cc2c(cc1N1Cc3c(Cl)cnc(N4CCCC4)c3NC1=O)OC(c1ncccc1F)CC2 (stereo not drawn) [Example 158, 5-chloro-3-(2-(3-fluoropyridin-2-yl)-6-methyl-3,4-dihydro-2H-chromen-7-yl)-8-(pyrrolidin-1-yl)-3,4-dihydropyrido[3,4-d]pyrimidin-2(1H)-one] | 99
16 | O=C1Nc2cncc(C(F)(F)F)c2CN1c1cc2c(cc1Cl)CCC(c1ncccc1F)O2 (stereo not drawn) [Example 78, 3-(6-chloro-2-(3-fluoropyridin-2-yl)-3,4-dihydro-2H-chromen-7-yl)-5-(trifluoromethyl)-3,4-dihydropyrido[3,4-d]pyrimidin-2(1H)-one] | 105
17 | Cc1ccc(OCc2ccc(F)cc2F)cc1N1Cc2ccc(C(C)(C)O)cc2NC1=O [Example 201, 3-(5-((2,4-difluorobenzyl)oxy)-2-methylphenyl)-7-(2-hydroxypropan-2-yl)-3,4-dihydroquinazolin-2(1H)-one] | 104

Continued, values first:

Row | inhibitory rate (%) | Structure (SMILES)
18 | 98 | O=C1Nc2c(ccnc2C(F)(F)F)CN1c1cc2c(cc1Cl)CCC(c1ncccc1F)O2 (stereo not drawn) [Example 66, 3-(6-chloro-2-(3-fluoropyridin-2-yl)-3,4-dihydro-2H-chromen-7-yl)-8-(trifluoromethyl)-3,4-dihydropyrido[3,4-d]pyrimidin-2(1H)-one]
19 | 90 | COC(=O)c1ccc2c(c1)NC(=O)N(c1cc(OCc3nc(C)cs3)ccc1C)C2 [Example 249, methyl 3-(2-methyl-5-((4-methyl-1,3-thiazol-2-yl)methoxy)phenyl)-2-oxo-1,2,3,4-tetrahydroquinazoline-7-carboxylate]
20 | 100 | Cc1cc2c(cc1N1Cc3c(ccnc3C(F)(F)F)NC1=O)O[C@@H](c1ncccc1F)CC2 [Example 5, 3-((2R)-2-(3-fluoropyridin-2-yl)-6-methyl-3,4-dihydro-2H-chromen-7-yl)-5-(trifluoromethyl)-3,4-dihydropyrido[4,3-d]pyrimidin-2(1H)-one]
21 | 90 | Cc1cc2c(cc1N1Cc3c(cc(-c4c(C)noc4C)nc3C3CC3)NC1=O)OC(c1ncccc1F)CC2 (stereo not drawn) [Example 151, 5-cyclopropyl-7-(3,5-dimethyl-1,2-oxazol-4-yl)-3-(2-(3-fluoropyridin-2-yl)-6-methyl-3,4-dihydro-2H-chromen-7-yl)-3,4-dihydropyrido[4,3-d]pyrimidin-2(1H)-one]
22 | 97 | O=C1Nc2cc(CO)ccc2CN1c1cc(OCc2c(F)cccc2F)ccc1CC1CCCCC1 [Example 290, 3-(2-(cyclohexylmethyl)-5-((2,6-difluorobenzyl)oxy)phenyl)-7-(hydroxymethyl)-3,4-dihydroquinazolin-2(1H)-one]
23 | 104 | Cc1cc2c(cc1N1Cc3c(Cl)cnc(N(C)C)c3NC1=O)OC(c1ncccc1F)CC2 (stereo not drawn) [Example 165, 5-chloro-8-(dimethylamino)-3-(2-(3-fluoropyridin-2-yl)-6-methyl-3,4-dihydro-2H-chromen-7-yl)-3,4-dihydropyrido[3,4-d]pyrimidin-2(1H)-one]
24 | 106 | Cc1ccc(OCc2ncccn2)cc1N1Cc2c(Cl)cccc2NC1=O [Example 274, 5-chloro-3-(2-methyl-5-(pyrimidin-2-ylmethoxy)phenyl)-3,4-dihydroquinazolin-2(1H)-one]
25 | 103 | CC(C)(O)c1cc2c(c(C3CC3)n1)CN(c1cc3c(cc1Cl)CCC(c1ncccc1F)O3)C(=O)N2 (stereo not drawn) [Example 75, 3-(6-chloro-2-(3-fluoropyridin-2-yl)-3,4-dihydro-2H-chromen-7-yl)-5-cyclopropyl-7-(2-hydroxypropan-2-yl)-3,4-dihydropyrido[4,3-d]pyrimidin-2(1H)-one]
26 | 104 | N#Cc1ncc(Cl)c2c1NC(=O)N(c1cc3c(cc1Cl)CCC(c1ncccc1F)O3)C2 (stereo not drawn) [Example 157, 5-chloro-3-(6-chloro-2-(3-fluoropyridin-2-yl)-3,4-dihydro-2H-chromen-7-yl)-2-oxo-1,2,3,4-tetrahydropyrido[3,4-d]pyrimidine-8-carbonitrile]
27 | 100 | O=C1COCCN1c1cc2c(c(C3CC3)n1)CN(c1cc3c(cc1Cl)CCC(c1ncccc1F)O3)C(=O)N2 (stereo not drawn) [Example 120, 3-(6-chloro-2-(3-fluoropyridin-2-yl)-3,4-dihydro-2H-chromen-7-yl)-5-cyclopropyl-7-(3-oxomorpholin-4-yl)-3,4-dihydropyrido[4,3-d]pyrimidin-2(1H)-one]
28 | 80 | Cc1ccc(OCc2ccccc2F)cc1N1Cc2ccccc2NC1=O [Example 172, 3-(5-((2-fluorobenzyl)oxy)-2-methylphenyl)-3,4-dihydroquinazolin-2(1H)-one]
29 | 106 | COCCN1C(=O)N(c2cc3c(cc2Cl)CCC(c2ncccc2F)O3)Cc2c1ccnc2Cl (stereo not drawn) [Example 55, 5-chloro-3-(6-chloro-2-(3-fluoropyridin-2-yl)-3,4-dihydro-2H-chromen-7-yl)-1-(2-methoxyethyl)-3,4-dihydropyrido[4,3-d]pyrimidin-2(1H)-one]
30 | 110 | O=C1Nc2cc(=O)[nH]c(C3CC3)c2CN1c1cc2c(cc1Cl)CCC(c1ncccc1F)O2 (stereo not drawn) [Example 17, 3-(6-chloro-2-(3-fluoropyridin-2-yl)-3,4-dihydro-2H-chromen-7-yl)-5-cyclopropyl-4,6-dihydropyrido[4,3-d]pyrimidine-2,7(1H,3H)-dione]
